Test results reported in US4436751A, “Nitrobenzyl monates antibacterial compounds” (Beecham Group Limited, priority 1980, dated 1984).
Where two headings read alike, the source gives them in different places.

Legend:
Assay type in all cases: cell-based
[1] = system: M. suipneumoniae NB12; assay: Anti-mycoplasmal MIC in vitro, Friis broth agarose (Table 1); conditions: Mesomycoplasma hyopneumoniae, NB12, 144 h
[2] = system: M. suipneumoniae HR(2); assay: as above; conditions: Mesomycoplasma hyopneumoniae, 144 h
[3] = system: M. suipneumoniae Str. 11; assay: as above; conditions: Mesomycoplasma hyopneumoniae, STR.11, 144 h
[4] = system: M. suipneumoniae MS 16; assay: as above; conditions: Mesomycoplasma hyopneumoniae, MS16, 144 h
[5] = system: M. suipneumoniae PW/C/210; assay: as above; conditions: Mesomycoplasma hyopneumoniae, 144 h
[6] = system: M. suipneumoniae OCD 1; assay: as above; conditions: Mesomycoplasma hyopneumoniae, OCD1, 144 h
[7] = system: M. suipneumoniae ATCC 25095; assay: as above; conditions: Mesomycoplasma hyopneumoniae, ATCC25095, 144 h
[8] = system: M. hyorhinis ATCC 25021; assay: as above; conditions: Mesomycoplasma hyorhinis, ATCC25021, 144 h
[9] = system: M. hyosynoviae ATOC 25591; assay: as above; conditions: 144 h
[10] = system: M. pneumoniae ATCC 15492; assay: as above; conditions: Mycoplasmoides pneumoniae, ATCC15492, 144 h
[11] = system: Bacillus subtilis 6633; assay: Human bacteria MIC, nutrient agar with chocolated horse blood (Table 3)
Protocol: (§1) The values were determined by serial dilutions in nutrient agar with 5% chocolated horse blood after incubations for 18 hours at 37° C.

[12] = system: Corynebacterium xerosis 9755; assay: as above
Protocol: as §1

[13] = system: E. Coli NCTC 10418; assay: as above; conditions: Escherichia coli
Protocol: as §1

[14] = system: E. coli ESS; assay: as above; conditions: Escherichia coli
Protocol: as §1

[15] = system: Haemophilus influenzae Q1; assay: as above
Protocol: as §1

[16] = system: K. aerogenes A; assay: as above; conditions: Klebsiella aerogenes
Protocol: as §1

[17] = system: P. mirabilis 889; assay: as above
Protocol: as §1

[18] = system: Pasteurella multocida 1633; assay: as above
Protocol: as §1

[19] = system: Ps. aeruginosa NCTC 10662; assay: as above; conditions: Pseudomonas aeruginosa
Protocol: as §1

[20] = system: Sarcina lutea 8340; assay: as above
Protocol: as §1

[21] = system: Staph. aureus Oxford; assay: as above; conditions: Staphylococcus aureus
Protocol: as §1

[22] = system: Staph. aureus Russell; assay: as above; conditions: Staphylococcus aureus
Protocol: as §1

[23] = system: Staph. aureus W2827; assay: as above; conditions: Staphylococcus aureus
Protocol: as §1

[24] = system: Strep. faecalis 1; assay: as above
Protocol: as §1

[25] = system: Strep. pneumoniae CN33; assay: as above; conditions: Streptococcus pneumoniae
Protocol: as §1

[26] = system: Strep. pyogenes R80/421-A; assay: as above; conditions: Streptococcus pyogenes
Protocol: as §1

[27] = system: Neisseria catarrhalis 1502; assay: as above
Protocol: as §1

[28] = system: Strep. 2733-B; assay: as above
Protocol: as §1

[29] = M. suipneumoniae HR(2), in vitro, 6 days 37° C., read-out: MIC
[30] = M. pneumoniae ATCC 15492, in vitro, 6 days 37° C., read-out: MIC
[31] = Bacillus subtilis 6633, nutrient agar 5% chocolated horse blood, 18 hours 37° C., read-out: MIC
[32] = Corynebacterium xerosis 9755, nutrient agar 5% chocolated horse blood, 18 hours 37° C., read-out: MIC
[33] = NCTC10418, E. coli NCTC 10418, nutrient agar 5% chocolated horse blood, 18 hours 37° C., read-out: MIC
[34] = E. coli ESS, nutrient agar 5% chocolated horse blood, 18 hours 37° C., read-out: MIC
[35] = Haemophilus influenzae Q1, nutrient agar 5% chocolated horse blood, 18 hours 37° C., read-out: MIC
[36] = K. aerogenes A, nutrient agar 5% chocolated horse blood, 18 hours 37° C., read-out: MIC
[37] = Proteus mirabilis, P. mirabilis 889, nutrient agar 5% chocolated horse blood, 18 hours 37° C., read-out: MIC
[38] = Pasteurella multocida 1633, nutrient agar 5% chocolated horse blood, 18 hours 37° C., read-out: MIC
[39] = NCTC10662, Ps. aeruginosa NCTC 10662, nutrient agar 5% chocolated horse blood, 18 hours 37° C., read-out: MIC
[40] = Micrococcus luteus, Sarcina lutea 8340, nutrient agar 5% chocolated horse blood, 18 hours 37° C., read-out: MIC
[41] = Staph. aureus Oxford, nutrient agar 5% chocolated horse blood, 18 hours 37° C., read-out: MIC
[42] = Staph. aureus Russell, nutrient agar 5% chocolated horse blood, 18 hours 37° C., read-out: MIC
[43] = Staph. aureus W2827, nutrient agar 5% chocolated horse blood, 18 hours 37° C., read-out: MIC
[44] = Enterococcus faecalis, Strep. faecalis 1, nutrient agar 5% chocolated horse blood, 18 hours 37° C., read-out: MIC
[45] = Strep. pneumoniae CN33, nutrient agar 5% chocolated horse blood, 18 hours 37° C., read-out: MIC
[46] = Corynebacterium xerosis, 9755, 18 h
[47] = Haemophilus influenzae, Q1, 18 h
[48] = Pasteurella multocida, 1633, 18 h

Measured: MIC

C/C(=C\C(=O)OCc1ccc([N+](=O)[O-])cc1)CC1OCC(CC2OC2C(C)C(C)O)C(O)C1O (stereo not drawn) [Example 1, p-nitrobenzyl monate A]
0.25 µg/mL: [26]; R80/421A, 18 h
< 0.01 µg/mL: [9]
0.05 µg/mL: [1] | [3] | [4] | [5] | [7] | [8]
> 100 µg/mL: [12]; [32] | [19]; [39] | [20]; [40]
50 µg/mL: [24]; [44]
0.5 µg/mL: [11]; [31] | [14]; [34] | [18]; [38] | [21]; [41] | [22]; [42] | [23]; [43]
25 µg/mL: [13]; [33]
100 µg/mL: [16]; [36] | [17]; [37]
0.1 µg/mL: [2]; [29] | [6]; M. suipneumoniae OCD 1, in vitro, 6 days 37° C., read-out: MIC | [10]; [30] | [15]; [35] | [25]; [45]

C/C(=C\C(=O)OC(C)c1ccc([N+](=O)[O-])cc1)CC1OCC(CC2OC2C(C)C(C)O)C(O)C1O (stereo not drawn) [Example 4, 1-(p-nitrophenyl)ethyl monate A]
0.1 µg/mL: [9]; M. hyosynoviae ATOC 25591, in vitro, 6 days 37° C., read-out: MIC
10 µg/mL: [10]; [30] | [18]; [38]
1 µg/mL: [1] | [3] | [4] | [5] | [6] | [7] | [11]; [31] | [15]; [35] | [28]; Strep. 2733-B, nutrient agar 5% chocolated horse blood, 18 hours 37° C., read-out: MIC | [25]; [45] | [26]; Strep. pyogenes R80/421-A, nutrient agar 5% chocolated horse blood, 18 hours 37° C., read-out: MIC
> 100 µg/mL: [12]; [32] | [13]; [33] | [16]; [36] | [17]; [37] | [19]; [39] | [20]; [40] | [24]; [44]
2.5 µg/mL: [2]; [29] | [14]; [34] | [21]; [41] | [22]; [42] | [23]; [43]
0.5 µg/mL: [8] | [27]; Neisseria catarrhalis 1502, nutrient agar 5% chocolated horse blood, 18 hours 37° C., read-out: MIC

C/C(=C\C(=O)OCc1cc([N+](=O)[O-])cc([N+](=O)[O-])c1)CC1OCC(CC2OC2C(C)C(C)O)C(O)C1O (stereo not drawn) [Example 6, 3,5-dinitrobenzyl monate A]
2.5 µg/mL: [10]
1 µg/mL: [14]; 18 h | [22]; 18 h | [23]; W2827, 18 h
> 100 µg/mL: [12]; [46] | [19]; NCTC10662, 18 h | [20]; Micrococcus luteus, 8340, 18 h | [24]; Enterococcus faecalis, 1, 18 h
0.05 µg/mL: [1] | [2] | [6] | [7]
0.25 µg/mL: [25]; CN33, 18 h | [26]; R80/421A, 18 h
0.5 µg/mL: [11]; Bacillus subtilis, 6633, 18 h | [15]; [47] | [18]; [48] | [21]; 18 h | [28]; 18 h
100 µg/mL: [13]; NCTC10418, 18 h | [16]; 18 h | [17]; Proteus mirabilis, 889, 18 h
0.025 µg/mL: [3] | [4] | [5] | [8] | [9]
< 0.025 µg/mL: [27]; Neisseria, 1502, 18 h

C/C(=C\C(=O)OCc1cc([N+](=O)[O-])cc([N+](=O)[O-])c1C)CC1OCC(CC2OC2C(C)C(C)O)C(O)C1O (stereo not drawn) [Example 7, 3,5-dinitro-2-methylbenzyl monate A]
2.5 µg/mL: [10] | [14]; 18 h | [23]; W2827, 18 h | [28]; 18 h
0.25 µg/mL: [1] | [2] | [6] | [7] | [27]; Neisseria, 1502, 18 h | [26]; R80/421A, 18 h
5 µg/mL: [18]; [48]
> 100 µg/mL: [12]; [46] | [13]; NCTC10418, 18 h | [16]; 18 h | [17]; Proteus mirabilis, 889, 18 h | [19]; NCTC10662, 18 h | [20]; Micrococcus luteus, 8340, 18 h | [24]; Enterococcus faecalis, 1, 18 h
0.1 µg/mL: [3] | [4] | [5] | [8] | [9]
1 µg/mL: [11]; Bacillus subtilis, 6633, 18 h | [15]; [47] | [21]; 18 h | [22]; 18 h
0.5 µg/mL: [25]; CN33, 18 h

C/C(=C\C(=O)OCc1ccc([N+](=O)[O-])c([N+](=O)[O-])c1)CC1OCC(CC2OC2C(C)C(C)O)C(O)C1O (stereo not drawn) [Example 9, 3,4-dinitrobenzyl monate A]
100 µg/mL: [16]; 18 h
25 µg/mL: [24]; Enterococcus faecalis, 1, 18 h
50 µg/mL: [13]; NCTC10418, 18 h | [17]; Proteus mirabilis, 889, 18 h
2.5 µg/mL: [18]; [48] | [22]; 18 h | [28]; 18 h | [25]; CN33, 18 h
0.05 µg/mL: [27]; Neisseria, 1502, 18 h
1 µg/mL: [14]; 18 h | [21]; 18 h | [23]; W2827, 18 h
0.25 µg/mL: [1] | [3] | [4] | [5] | [7] | [8] | [15]; [47] | [26]; R80/421A, 18 h
> 100 µg/mL: [12]; [46] | [19]; NCTC10662, 18 h | [20]; Micrococcus luteus, 8340, 18 h
0.5 µg/mL: [2] | [6] | [9] | [11]; Bacillus subtilis, 6633, 18 h

C/C(=C\C(=O)OCc1ccc([N+](=O)[O-])cc1[N+](=O)[O-])CC1OCC(CC2OC2C(C)C(C)O)C(O)C1O (stereo not drawn) [Example 10, 2,4-dinitrobenzyl monate A]
0.05 µg/mL: [27]; Neisseria, 1502, 18 h
0.5 µg/mL: [3] | [4] | [5] | [7] | [8] | [15]; [47]
> 100 µg/mL: [12]; [46] | [13]; NCTC10418, 18 h | [16]; 18 h | [17]; Proteus mirabilis, 889, 18 h | [19]; NCTC10662, 18 h | [20]; Micrococcus luteus, 8340, 18 h | [24]; Enterococcus faecalis, 1, 18 h
0.25 µg/mL: [9] | [11]; Bacillus subtilis, 6633, 18 h | [26]; R80/421A, 18 h
1 µg/mL: [1] | [2] | [6] | [21]; 18 h
2.5 µg/mL: [10] | [14]; 18 h | [18]; [48] | [22]; 18 h | [23]; W2827, 18 h | [28]; 18 h | [25]; CN33, 18 h
